{
  "source": "patent US5104814A",
  "about": "“Assay kit and methods for neuroleptic drugs” (Schering Corporation, priority 1990, dated 1992)",
  "key": {"[1]": {"target": "T1, D-1 receptor (Rattus norvegicus, UniProt P18901)", "T1 construct": "Striatal tissue was excised, pooled, and homogenized; from tissue; host or cells: striatum of male Sprague-Dawley rats, homogenized and washed by centrifugation", "T1 sequence (P18901 whole entry)": "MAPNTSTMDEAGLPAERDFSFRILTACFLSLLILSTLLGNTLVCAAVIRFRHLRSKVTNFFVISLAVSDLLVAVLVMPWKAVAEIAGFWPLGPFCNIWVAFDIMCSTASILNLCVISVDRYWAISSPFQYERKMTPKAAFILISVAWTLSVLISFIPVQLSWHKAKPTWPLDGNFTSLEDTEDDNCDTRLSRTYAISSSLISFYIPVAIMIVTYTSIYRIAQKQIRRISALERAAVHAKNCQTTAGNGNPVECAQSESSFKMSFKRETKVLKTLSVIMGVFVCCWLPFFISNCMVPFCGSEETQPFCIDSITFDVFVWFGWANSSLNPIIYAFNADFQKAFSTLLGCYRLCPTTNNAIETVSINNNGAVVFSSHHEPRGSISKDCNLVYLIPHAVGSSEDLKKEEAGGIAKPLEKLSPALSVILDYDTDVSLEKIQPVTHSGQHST", "test": "Competition binding with [N-methyl-^3 H] Compound as radioligand in rat striatal tissue", "conditions": "rat striatum, radioligand 1.0 nM; read-out: KI, inhibition of binding of the labelled Compound", "procedure": "(§1) Male Sprague-Dawley rats (200 to 250 g) from Charles River Breeding Laboratories, Mass. were used to obtain brain tissue. The rats were decapitated, their brains removed and placed on ice. Striatal tissue was excised, pooled, and homogenized (Brinkman Polytron, 10 sec) in 100 volumes (v/v) of ice cold 50mM Tris-HCl buffer, pH 7.4 (at 25° C.). The homogenate was centrifuged at 20,000×g for 10 min. The resultant pellet was rehomogenized in Tris-HCl buffer and centrifuged again. The final pellet was resuspended in 50 mM Tris-HCl buffer pH 7.4 containing 120 mM NaCl, 5 mM KCL, 2 mM CaCl2, and 1 mM MgCl2.\nTo test the receptor specificity of [N-methyl-^3 H]"}, "[2]": {"test_system": "dopamine D-1 receptors", "conditions": "J. Pharmacol. Exp. Ther., 226: 462 (1983); cited from earlier work"}, "[3]": {"test_system": "rat striatal membranes", "test": "In vivo labeling of rat striatal membranes by [N-methyl-^3 H] Compound after subcutaneous injection"}, "[4]": {"target": "T1, D-1 receptor", "test": "Saturation binding of [N-methyl-^3 H] Compound in rat striatum", "conditions": "binding as a function of radioligand concentration, 25 min", "procedure": "as §1"}, "[5]": {"test": "Recovery of radioactivity from polypropylene assay tubes (adsorption onto surfaces)", "assay_type": "physicochemical", "conditions": "polypropylene tubes used in these experiments"}},
  "data": [
    {"smiles": "CN1CCc2cc(Cl)c(O)cc2[C@H]2c3ccccc3CC[C@@H]21", "note": "[Compound, [-]trans 6,7,7a,8,9,13b-hexahydro-3-chloro-2-hydroxy-N-methyl-5H-benzo[d]naphtho[2,1-b]-azepine]", "values": [
      {"measurement": "Ki", "setting": "[1]", "result": 3.6, "unit": "nM"}
    ]},
    {"smiles": "CN1CCc2cc(Cl)c(O)cc2[C@@H](c2ccccc2)C1", "note": "[R-(+)-8-chloro-2,3,4,5-tetrahydro-3-methyl-5-phenyl-1H-3-benzazepine-7-ol, reference compound]", "values": [
      {"measurement": "selectivity for dopamine D-1 receptors over D-2 receptors", "setting": "[2]", "result": 2500, "unit": "fold"},
      {"measurement": "inhibition of striatal binding of [N-methyl-^3 H] Compound in vivo", "setting": "[3]; 1 umole of inhibitor", "result": 90, "unit": "%"}
    ]},
    {"smiles": "[3H]C([3H])([3H])N1CCc2cc(Cl)c(O)cc2C2c3ccccc3CCC21", "note": "(stereo not drawn) [[N-methyl-^3 H] Compound]", "values": [
      {"measurement": "KD (disassociation constant)", "setting": "[4]", "result": 1.7, "unit": "nM"},
      {"measurement": "time of optimal binding after subcutaneous injection", "setting": "[3]; subcutaneous, striatal membranes", "result": 1, "unit": "h"},
      {"measurement": "recoverable radioactivity from the polypropylene tubes", "setting": "[5]", "result": 97, "unit": "%"}
    ]}
  ]
}
